Numbers after ± are expanded uncertainties.
Conditions: Liquid; Ebulliometric method (Recirculating still)

| SMILES | Normal boiling temperature [°C] |
| --- | --- |
| CC(C)c1ccccc1 [isopropylbenzene] | 152.40 ± 0.22 |
| CCc1ccccc1 [ethylbenzene] | 136.20 ± 0.21 |
| CCCCc1ccccc1 [butylbenzene] | 183.2 ± 0.22 |

Second part, the compound after the results:

| Normal boiling temperature [°C] | SMILES |
| --- | --- |
| 169.30 ± 0.22 | Cc1ccc(C)c(C)c1 [1,2,4-trimethylbenzene] |
| 240.0 ± 0.21 | O=CN1CCOCC1 [N-formylmorpholine] |
